Source: patent US5234935A, “N-alkylated 1,4-dihydropyridine-dicarboxylic acid esters” (Bayer Aktiengesellschaft, priority 1990, dated 1993)

Key:
[1] = tested on: erythrocytes; experiment: Filtration of calcium-laden erythrocytes through 5 μm pores; type: cell-based; conditions: Erythrocyte, 0.5 h; filtration through 5 μm sieve pores; sheared in normal buffer 30 min; read-out: ED50 improvement in the flexibility compared to damage to control
Description: Test c) detects the filterability of calcium-laden erythrocytes through 5 μm pores (ED50, mol/l). In this test, the membrane flexibility plays a role under small force gradients.
Filtration of erythrocytes through 5 μm sieve pores is an established method for the determination of the deformability of erythrocytes. The cells are sheared in normal buffer for 30 min so that the calcium concentration increases intracellularly and the flexibility is reduced.

[2] = tested on: erythrocytes; experiment: Antihaemolytic action, calcium-laden erythrocytes under high shearing stress; type: cell-based; conditions: Erythrocyte; reduction of haemoglobin release from calcium-laden erythrocytes; read-out: ED50 of the antihaemolytic action
From the text: Test b) detects the antihaemolytic action of the substances (ED50, mol/l). In this test, calcium-laden erythrocytes are forced through small pores under high shearing stresses, so that haemoglobin is released as a result of their haemolysis and measured. The reduction in haemoglobin release is the measured quantity.
Normal erythrocytes become haemolytic under high shearing stresses. The haemolysis of calcium-laden cells is particularly pronounced. This measure of mechanical stability is used for substance characterization. The measured quantity is the concentration of free haemoglobin in the medium.

[3] = tested on: SH rats; experiment: Blood pressure in SH rats after p.o. administration (tail artery, Riva Rocci); type: in vivo, rat
Description: (§1) The blood pressure neutrality is determined in the following models, which are typical for dihydropyridines: in SH rats after p.o. administration by measurement in the tail artery (Riva Rocci method) and in anaesthetized Wistar rats after i.v. administration (via a catheter inserted in the carotid artery). Blood-neutral compounds are designated as those which reduce the blood pressure by at most 20% of the starting value in both test models at the dose indicated. The difference between the therapeutic dose and the blood pressure action occurring is at least a factor of 10, as a rule a factor of ≥30, in particular ≥100.

[4] = tested on: erythrocytes; experiment: Calcium permeability of erythrocytes (45Ca) after ATPase blockade by Na ortho-vanadate; type: cell-based; conditions: Erythrocyte; inhibition of calcium influx (45Ca); Na ortho-vanadate 0.75 mM; read-out: ED50 of the inhibition
Description: Test a) measures the calcium permeability (^45 Ca) by blockade of the ATPases by Na ortho-vanadate. As a result, calcium can accumulate in the erythrocytes. A consequence is a reduced flexibility. ED50 values (mol/l) for the inhibition of calcium influx are given for test a).
After blockade of the membrane-immobilized ATPases by Na ortho-vanadate (0.75 mM), the calcium permeability is measured (^45 Ca method). Accumulation of calcium reduces the flexibility of the erythrocytes.

[5] = tested on: anaesthetized Wistar rats; experiment: Blood pressure in anaesthetized Wistar rats after i.v. administration (carotid catheter); type: in vivo, rat
Description: as §1

[6] = tested on: leukocyte adhesion; experiment: Leukocyte adhesion in hamster cheek pouch model; type: in vivo; conditions: 0.1 mg/kg i.v.; for Leukocyte adhesion, Ischaemic, control = 100%: ischaemic (10 min circulation stop), small arterioles; for Leukocyte adhesion, Non-ischaemic, control = 100%: small venules
Description: The microcirculation can be directly observed in the hamster cheek pouch model. Measured quantities are leukocyte adhesion and also vessel diameter and erythrocyte velocity. The adhesion was quantified under ischaemic and non-ischaemic experimental conditions. Under non-ischaemic conditions, the adhesion is quantified in the area of small venules, under ischaemic conditions (10 min circulation stop) the adhesion is quantified in small arterioles. The results of the control experiments are given relative to 100%. 0.1 mg/kg i.v. is in each case chosen as the test dose, the results are decreases in % of the control.

| IC50 [4] | SMILES | EC50 [1] | EC50 [2] | Dose at which a blood pressure reduction occurs, p.o. [3] | Dose at which a blood pressure reduction occurs, i.v. [5] | Leukocyte adhesion, Ischaemic, control = 100% [6] | Leukocyte adhesion, Non-ischaemic, control = 100% [6] |
| --- | --- | --- | --- | --- | --- | --- | --- |
| – | CCOC(=O)C1=C(C)N(C)C(C)=C(C(=O)OCC)C1c1ccc(F)cc1 [Example 1, Diethyl 1,2,6-trimethyl-4-(4-fluorophenyl)-1,4-dihydropyridine-3,5-dicarboxylate] | 5 µM | – | – | – | – | – |
| – | COC(=O)C1=C(C)N(C)C(C)=C(C(=O)OC)C1c1cccc(F)c1 [Example 2, Dimethyl 4-(3-fluorophenyl)-1,2,6-trimethyl-1,4-dihydropyridine-3,5-dicarboxylate] | – | 0.1 µM | – | – | – | – |
| 5 µM | COC(=O)C1=C(C)N(C)C(C)=C(C(=O)OC)C1c1ccc(C(F)(F)F)cc1 [Example 3, Dimethyl 1,2,6-trimethyl-4-(4-trifluoromethylphenyl)-1,4-dihydro-pyridine-3,5-dicarboxylate] | 5 µM | – | > 30 mg/kg | > 10 mg/kg | 31% | 63% |
| – | CCCCOC(=O)C1=C(C)N(C)C(C)=C(C(=O)OCCCC)C1c1ccc([N+](=O)[O-])cc1 [Example 6, dibutyl 1,2,6-trimethyl-4-(4-nitrophenyl)-1,4-dihydropyridine-3,5-dicarboxylate] | – | – | > 30 mg/kg | > 10 mg/kg | 56% | 50% |
| – | COC(=O)C1=C(C)N(C)C(C)=C(C(=O)OC(C)C(C)C)C1c1ccc(C(F)(F)F)cc1 (centres unmarked) [Example 9, methyl 1,2-dimethylpropyl 1,2,6-trimethyl-4-(4-trifluoromethylphenyl)-1,4-dihydro-pyridine-3,5-dicarboxylate] | – | – | > 30 mg/kg | > 10 mg/kg | 36% | 70% |
| 5 µM | COC(=O)C1=C(C)N(C)C(C)=C(C(=O)OC)C1c1ccc(Br)cc1 [Example 13, dimethyl 1,2,6-trimethyl-4-(4-bromophenyl)-1,4-dihydropyridine-3,5-dicarboxylate] | – | 0.5 µM | – | – | – | – |
| – | CCCOC(=O)C1=C(C)N(C)C(C)=C(C(=O)OCCC)C1c1ccc(C#N)cc1 [Example 15, dipropyl 1,2,6-trimethyl-4-(4-cyanophenyl)-1,4-dihydropyridine-3,5-dicarboxylate] | – | 5 µM | – | – | – | – |
| – | COC(=O)C1=C(C)N(C2CC2)C(C)=C(C(=O)OC)C1c1ccc(C(F)(F)F)cc1 [Example 18, dimethyl 1-cyclopropyl-2,6-dimethyl-4-(4-trifluoromethylphenyl)-1,4-dihydro-pyridine-3,5-dicarboxylate] | – | – | > 30 mg/kg | > 10 mg/kg | 32% | 54% |
| – | CCOC(=O)C1=C(C)N(C2CC2)C(C)=C(C(=O)OCC)C1c1ccc(C(F)(F)F)cc1 [Example 19, diethyl 1-cyclopropyl-2,6-dimethyl-4-(4-trifluoromethylphenyl)-1,4-dihydro-pyridine-3,5-dicarboxylate] | – | – | > 100 mg/kg | > 10 mg/kg | 34% | 61% |
| 5 µM | COC(=O)C1=C(C)N(C)C(C)=C(C(=O)OC)C1c1ccc(C)c([N+](=O)[O-])c1 [Example 21, dimethyl 1,2,6-trimethyl-4-(4-methyl-3-nitrophenyl)-1,4-dihydro-pyridine-3,5-dicarboxylate] | – | 0.5 µM | – | – | – | – |
| – | CCOC(=O)C1=C(C)N(C)C(C)=C(C(=O)OCC)C1c1ccc(C)c([N+](=O)[O-])c1 [Example 22, diethyl 1,2,6-trimethyl-4-(4-methyl-3-nitrophenyl)-1,4-dihydro-pyridine-3,5-dicarboxylate] | – | 0.5 µM | – | – | – | – |
| – | COC(=O)C1=C(C)N(C)C(C)=C(C(=O)OC)C1c1ccc(Cl)c(C(F)(F)F)c1 [Example 26, dimethyl 1,2,6-trimethyl-4-(4-chloro-3-trifluoromethylphenyl)-1,4-dihydro-pyridine-3,5-dicarboxylate] | 5 µM | 0.03 µM | – | – | – | – |
| 1 µM | COC(=O)C1=C(C)N(C)C(C)=C(C(=O)OC)C1c1ccc(C)c(C(F)(F)F)c1 [Example 27, dimethyl 1,2,6-trimethyl-4-(4-methyl-3-trifluoromethylphenyl)-1,4-dihydro-pyridine-3,5-dicarboxylate] | – | 0.05 µM | – | – | – | – |
| – | COC(=O)C1=C(C)N(C)C(C)=C(C(=O)OC)C1c1ccc([N+](=O)[O-])c(O)c1 [Example 28, dimethyl 1,2,6-trimethyl-4-(3-hydroxy-4-nitrophenyl)-1,4-dihydro-pyridine-3,5-dicarboxylate] | 5 µM | – | – | – | – | – |
